pIC50: −log10 of the molar value.
Molecular target: T1, zebrafish Ape1 (zApe1) (Danio rerio, UniProt A0MTA1, T58C)
T1 sequence (A0MTA1 1-310 T58C): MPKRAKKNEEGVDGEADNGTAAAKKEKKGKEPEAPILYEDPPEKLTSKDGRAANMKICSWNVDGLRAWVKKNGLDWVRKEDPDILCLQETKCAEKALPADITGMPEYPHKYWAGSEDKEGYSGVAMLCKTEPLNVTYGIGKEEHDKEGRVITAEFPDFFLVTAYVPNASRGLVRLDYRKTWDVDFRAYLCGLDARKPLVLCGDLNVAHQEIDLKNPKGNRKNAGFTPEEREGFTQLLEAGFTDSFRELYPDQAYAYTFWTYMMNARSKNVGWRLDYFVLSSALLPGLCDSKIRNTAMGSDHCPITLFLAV
Experiment: redox EMSA: Ape1-stimulated AP-1 DNA binding, HEX-labelled oligonucleotide
Assay type: biochemical

pIC50: 5.30
SMILES: CCCCCCCCC/C(=C\C1=C(C)C(=O)C(OC)=C(OC)C1=O)C(=O)O [compound 5, (E)-3-(4,5-dimethoxy-2-methyl-3,6-dioxocyclohexa-1,4-dienyl)-2-nonylpropenoic acid]
